Like-named read-outs stand apart in the source and are kept apart here. Marks after values point to notes of the source that are not given here.
Legend:
Mouse liver microsome = format: in vitro ADME; conditions: mouse liver microsomes; data generated via Medicines for Malaria Venture
[1] = Log D in octanol/PBS pH 7.4; format: physicochemical
Solubility in PBS pH 7.4 = format: physicochemical
[2] = Mouse pharmacokinetics after a single oral dose; format: in vivo
[3] = cited from earlier work
[4] = cited from earlier work; remark: listed apart in the source
P. berghei = conditions: cited from earlier work
[5] = human liver microsomes; cited from earlier work
[6] = single dose of 50 mg/kg by oral gavage, male CD-1 mice
[7] = male, CD-1, mouse, plasma, po, 50 mg/kg

O=C(O[C@@H]1CCC[C@]2(C1)OOC1(O2)C2CC3CC(C2)CC1C3)N1CCNCC1 (stereo partly drawn) [8e, (1R,3”R)-Dispiro[adamantane-2,3’-[1,2,4]trioxolane-5’,1”-cyclohexan]-3”-yl piperazine-1-carboxylate]
MLM CLint (Mouse liver microsome): 321 µL/min/mg
MLM T1/2 (Mouse liver microsome): 4.3 min
Log D in octanol/PBS; pH 7.4 ([1]; data generated via Medicines for Malaria Venture): 3.25
Solubility in PBS pH 7.4 (Solubility in PBS pH 7.4): 157.0 μM
fold lower systemic exposure than 8c or 8n ([2]; mouse PK study with oral dosing): ~ three-fold
AUClast [2, 6]: 1070 ± 127 ng·h/mL
Cmax [2, 6]: 223 ± 25 ng/mL
Tmax [2, 6]: 2 h

c1cc([C@H]2CC[C@]3(CC2)OO[C@]2(O3)C3CC4CC(C3)CC2C4)ccc1OCCN1CCOCC1 [OZ439, artefenomel]
logD [1]: 5.81
AUC(0-t) [2, 7]: 52600 ± 4810 ng·h/mL
Tmax [2, 7]: 2 h
Log D in octanol/PBS; pH 7.4 [3]: 5.5
Solubility in PBS pH 7.4 [4]: 0.181^b μM
effective single dose in the P. berghei model (P. berghei; single dose): 20 mg/kg

CC(C)(N)CNC(=O)C[C@H]1CC[C@]2(CC1)OO[C@]1(O2)C2CC3CC(C2)CC1C3 [OZ277, arterolane]
HLM CLint [5]: <7 µL/min/mg
HLM T1/2 [5]: >1 h
Solubility in PBS pH 7.4 [4]: 504 μM
cures (P. berghei; Experiment 1, PO 6 mg/kg/day (4 days), female Swiss Webster mice, cured = parasitemia undetectable at day 30): 4/5

Reference: paper PMC7363035 (ACS infectious diseases, 2020)
